{
  "source": "patent US6784177B2",
  "about": "“Methods using hydralazine compounds and isosorbide dinitrate or isosorbide mononitrate” (Nitro Med, Inc., priority 1999, dated 2004)",
  "key": {"[1]": {"tested_on": "male patients with heart failure", "test": "V-HeFT II quality of life, Heart Condition Assessment (HCA) questionnaire", "format": "in vivo, human", "details": "black patients, at 12 months, negative = improved, positive = worsened, p=0.043", "method": "“Quality of life” refers to one or more of a persons ability to walk, climb stairs, do errands, work around the house, participate in recreational activities, and/or not requiring rest during the day, and/or the absence of sleeping problems or shortness of breath. The quality of life was measured using the Heart Condition Assessment (HCA) questionnaire. The questionnaire was self-administered after brief standardization instructions. The score was obtained by summing the ranks of the responses to each question.\n(§1) Drug administration was double-blind."}, "[2]": {"tested_on": "male patients with heart failure", "test": "V-HeFT II change in plasma norepinephrine (radioenzymatic assay)", "format": "in vivo, human", "details": "either racial group", "description": "as §1"}, "[3]": {"tested_on": "male patients with heart failure", "test": "V-HeFT II change in radiographic cardiothoracic ratio", "format": "in vivo, human", "details": "white patients", "description": "as §1"}, "[4]": {"tested_on": "male patients with heart failure", "test": "V-HeFT II peak exercise oxygen consumption (MVO2), bicycle-ergometer exercise test", "format": "in vivo, human", "method": "“Oxygen consumption” was measured during a progressive maximal bicycle-ergometer exercise test taken while the expired air was collected continuously to monitor oxygen consumption. […] Patients with pulmonary diseases, obstructive valvular diseases and the like, tend to have a low oxygen consumption. An increase in a patient's oxygen consumption typically results in the patient's increased exercise tolerance and implies that the patient would have an improved quality of life.\nas §1"}, "[5]": {"tested_on": "male patients with heart failure", "test": "V-HeFT II mortality (Kaplan-Meier, log-rank)", "format": "in vivo, human", "description": "as §1"}, "[6]": {"tested_on": "male patients with heart failure", "test": "V-HeFT II change in radionuclide left ventricular ejection fraction", "format": "in vivo, human", "details": "both racial groups", "description": "as §1"}, "[7]": {"tested_on": "black and white subgroups", "test": "black:white relative risk in placebo and enalapril groups (trial not named)", "format": "in vivo, human", "details": "enalapril group; placebo group 1.15"}, "[8]": {"tested_on": "male patients with heart failure", "test": "V-HeFT II change in systolic blood pressure", "format": "in vivo, human", "description": "as §1"}, "[9]": {"tested_on": "male patients with heart failure", "test": "V-HeFT II hospitalization", "format": "in vivo, human", "description": "as §1"}, "[10]": {"tested_on": "male patients with heart failure", "details": "V-HeFT I", "quoted_text": "Baseline measurements were restricted to the test done at the time of randomization. Change in measurements from baseline were compared between black and white patients using t-tests performed for each scheduled follow-up. […] Survival curves were compared by the log-rank test. Survival in black and white patients was further analyzed by presence or absence of a history of hypertension.\nIn the present invention, an interaction analysis between race and treatment was performed for both V-HeFT I and II, adjusting for baseline imbalances.\nMale patients were screened for participation in the study on the basis of a history of heart failure or documentation of left ventricular enlargement or dysfunction by chest radiography, echocardiography or radionuclide ventriculography. The specific ventricular imaging requirement for entry was one of the following: a radiographic cardiothoracic ratio >0.55, an echocardiographic left ventricular end-diastolic diameter >2.7 cm/m^2 body surface area or radionuclide left ventricular ejection fraction <0.45. In addition, patients were eligible for entry only if they had reduced maximal exercise tolerance. This was defined as a measured peak oxygen consumption (VO2)<25 ml/kg per min during a progressive bicycle ergometer exercise test.\nNearly all patients were receiving background therapy with diuretic and/or digoxin. […] Full doses of the vasodilator regimens in V-HeFT I were prazosin 5 mg four times daily, the combination of hydralazine 75 mg and isosorbide dinitrate 40 mg four times daily, or placebo. […] Drug administration was double-blind. All patients were studied for the duration of the trial and for a minimum of 6 months or until death."}, "[11]": {"tested_on": "male patients with heart failure", "test": "V-HeFT I hospitalization", "format": "in vivo, human", "description": "as §1"}},
  "note": "Like-named read-outs stand apart in the source and are kept apart here.",
  "data": [
    {"smiles": "CCOC(=O)[C@H](CCc1ccccc1)N[C@@H](C)C(=O)N1CCC[C@H]1C(=O)O", "note": "[enalapril]", "values": [
      {"measurement": "quality of life score (HCA questionnaire)", "setting": "[1]", "value": "+1.04"},
      {"measurement": "change in plasma norepinephrine (PNE)", "setting": "[2]", "value": "not apparent"},
      {"measurement": "reduction in radiographic heart size (cardiothoracic ratio) during follow-up", "setting": "[3]", "value": "persisted through 3 years"},
      {"measurement": "mean improvement (increase) from baseline in MVO2, adjusted for differences in baseline characteristics", "setting": "[4]; black patients, 12 months, p=0.15", "value": 0.010, "unit": "mL/kg/min"},
      {"measurement": "decrease from baseline in MVO2", "setting": "[4]; black patients, 12 months, unadjusted, p=0.19", "value": 0.047, "unit": "mL/kg/min"},
      {"measurement": "effect on oxygen consumption (MVO2)", "setting": "[4]; both black and white patients, 13 weeks", "value": "did not improve"},
      {"measurement": "deaths among treated patients", "setting": "[5]; black patients, of 106 on enalapril, of 109 on hydralazine-isosorbide dinitrate", "value": 39},
      {"measurement": "annual mortality rate (AMR)", "setting": "[5]; black patients, p=NS", "value": 12.8, "unit": "%"},
      {"measurement": "mortality reduction with enalapril compared to hydralazine and isosorbide dinitrate", "setting": "[5]; white patients with a history of hypertension, p<0.02", "value": "significant mortality reduction"},
      {"measurement": "annual mortality rate (AMR)", "setting": "[5]; white patients, log rank p=0.02", "value": 11.0, "unit": "%"},
      {"measurement": "deaths among treated patients", "setting": "[5]; white patients, of 292 on enalapril, of 282 on hydralazine-isosorbide dinitrate", "value": 90},
      {"measurement": "mortality reduction with enalapril compared to hydralazine and isosorbide dinitrate", "setting": "[5]; whites or blacks without hypertensive history, blacks with hypertensive history", "value": "did not differ"},
      {"measurement": "radionuclide ejection fraction (EF) response", "setting": "[6]", "value": "rose"},
      {"measurement": "black:white relative risk", "setting": "[7]", "value": 1.34},
      {"measurement": "systolic blood pressure after the initial fall", "setting": "[8]; black patients", "value": "recovered by 13 weeks"},
      {"measurement": "systolic blood pressure after the initial fall", "setting": "[8]; white patients, 4.5 years of follow-up", "value": "remained lower thereafter"},
      {"measurement": "patients hospitalized for CHF (%)", "setting": "[9]; black patients", "value": 22.6, "unit": "%"},
      {"measurement": "patients hospitalized for any reason (%)", "setting": "[9]; black patients", "value": 61.3, "unit": "%"},
      {"measurement": "patients hospitalized for CHF (%)", "setting": "[9]; white patients", "value": 17.5, "unit": "%"},
      {"measurement": "patients hospitalized for any reason (%)", "setting": "[9]; white patients", "value": 62.0, "unit": "%"}
    ]},
    {"smiles": "COc1cc2nc(N3CCN(C(=O)c4ccco4)CC3)nc(N)c2cc1OC", "note": "[prazosin]", "values": [
      {"measurement": "annual mortality rate (AMR)", "setting": "[10]; black patients, placebo AMR 17.3%", "value": 15.4, "unit": "%"},
      {"measurement": "treatment benefit on survival", "setting": "[10]; white patients, vs placebo (FIG. 2B)", "value": "absence of demonstrable treatment benefit"},
      {"measurement": "annual mortality rate (AMR)", "setting": "[10]; white patients, placebo AMR 18.8%, p=NS", "value": 22.1, "unit": "%"},
      {"measurement": "patients hospitalized for CHF (%)", "setting": "[11]; black patients", "value": "23.", "unit": "%"},
      {"measurement": "patients hospitalized for any reason (%)", "setting": "[11]; black patients", "value": 40.4, "unit": "%"},
      {"measurement": "patients hospitalized for CHF (%)", "setting": "[11]; white patients", "value": 31.5, "unit": "%"},
      {"measurement": "patients hospitalized for any reason (%)", "setting": "[11]; white patients", "value": 35.4, "unit": "%"}
    ]}
  ]
}
